The record followed here is US20120122870A1, “Treatment Of Ischemia-Reperfusion Injury” (MUSC FOUNDATION FOR RESEARCH DEVELOPMENT, priority 2009, published 2012).

Molecules are shown by their SMILES.

Experiment [1] deals with endogenous SK activity in MDA-MB-231 cells. The experiment can be described thus: Cellular S1P production (endogenous SK activity) in MDA-MB-231 cells. The class given is cell-based. The conditions noted are these: for inhibition at 20 µg/mL: MDA-MB-231, MDA-MB-231 cells incubated with 20 μg/mL of compound. The method, boiled down: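 MDA-MB-231 cells treated with 20 μg/mL compound and assayed for endogenous SK activity, reported as % inhibition of S1P production. For IC50, cells received varying compound concentrations and S1P produced was measured; IC50 is the concentration giving 50% inhibition.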

For another experiment, the target named is T1, recombinant human SK (Homo sapiens, UniProt Q9NYA1).
T1 construct: GST (glutathione-S-transferase) (N); made in house; host or cells: bacteria (pGEX bacterial expression vector)
T1 sequence (Q9NYA1 whole entry): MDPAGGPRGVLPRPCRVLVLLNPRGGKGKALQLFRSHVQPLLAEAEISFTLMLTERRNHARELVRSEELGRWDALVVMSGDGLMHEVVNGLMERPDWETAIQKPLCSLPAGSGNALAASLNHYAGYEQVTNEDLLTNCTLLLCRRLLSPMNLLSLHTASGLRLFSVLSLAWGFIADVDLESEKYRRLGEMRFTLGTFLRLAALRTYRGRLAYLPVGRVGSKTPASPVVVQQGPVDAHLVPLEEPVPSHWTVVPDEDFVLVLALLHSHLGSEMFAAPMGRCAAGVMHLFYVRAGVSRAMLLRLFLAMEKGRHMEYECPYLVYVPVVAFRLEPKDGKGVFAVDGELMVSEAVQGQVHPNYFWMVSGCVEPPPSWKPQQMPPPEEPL
Kind of experiment: Recombinant human SK activity assay ([3H]sphingosine to [3H]S1P). It is filed as biochemical. The note with it: Human SK incubated with 6 μg/mL of compound; percentage of SK activity inhibited.

[2] abbreviates: Homo sapiens, percentage of S1P production inhibited.

One may read the inhibition as the percentage by which the read-out fell short of the control. By IC50 is commonly meant the concentration at which inhibition is half-maximal. A higher IC50 goes with a need for much substance. In experiment [1] (setting [2]), `CCn1c2ccccc2c2cc(NC(C)C34CC5CC(CC(c6ccc(Cl)cc6)(C5)C3)C4)ccc21` (stereo not shown) [A114, {1-[3-(4-Chloro-phenyl)-adamantan-1-yl]-ethyl}-(9-ethyl-9H-carbazol-3-yl)-amine] displayed an inhibition at 20 µg/mL of 46%. This molecule also had a half-inhibitory concentration (IC50) in experiment [1] (Homo sapiens, MDA-MB-231 cells, varying concentrations, concentration inhibiting S1P production by 50%) of 51 µM. The inhibition at 6 µg/mL on recombinant human SK came to 33%.

Turning to `CC(NC(=O)Nc1ccc(Cl)c(C(F)(F)F)c1)C12CC3CC(CC(c4ccc(Cl)cc4)(C3)C1)C2` (stereo not shown) [A118, 1-{1-[3-(4-Chloro-phenyl)-adamantan-1-yl]-ethyl}-3-(4-chloro-3-trifluoromethyl-phenyl)-urea], in experiment [1] (setting [2]), testing at 20 µg/mL gave an inhibition of 5%. Also, the inhibition at 6 µg/mL at recombinant human SK turned out to be 77%.

With `CCCCCCCCCCCCCCCC(=O)Nc1nc(-c2ccc(Cl)cc2)cs1` [B3, Hexadecanoic acid [4-(4-chloro-phnyl)-thiazol-2-yl]-amide], in experiment [1] (MDA-MB-231 cells incubated with 20 μg/mL of compound, percentage of S1P production inhibited), the “Cellular S1P (% inhibition)” value amounted to 34%. Moreover, at recombinant human SK, the “Recombinant SK (% inhibition)” value was found to be 88%.
